The source of these data is patent publication US20250230155A1 (Vanderbilt University, priority 2021, published 2025).

Bounds are passed on as bounds.

In this experiment the target is T1, human mAChR M4 (Homo sapiens, UniProt P08173).
T1 construct: expressed in transfected cells
T1 sequence (P08173 1-479): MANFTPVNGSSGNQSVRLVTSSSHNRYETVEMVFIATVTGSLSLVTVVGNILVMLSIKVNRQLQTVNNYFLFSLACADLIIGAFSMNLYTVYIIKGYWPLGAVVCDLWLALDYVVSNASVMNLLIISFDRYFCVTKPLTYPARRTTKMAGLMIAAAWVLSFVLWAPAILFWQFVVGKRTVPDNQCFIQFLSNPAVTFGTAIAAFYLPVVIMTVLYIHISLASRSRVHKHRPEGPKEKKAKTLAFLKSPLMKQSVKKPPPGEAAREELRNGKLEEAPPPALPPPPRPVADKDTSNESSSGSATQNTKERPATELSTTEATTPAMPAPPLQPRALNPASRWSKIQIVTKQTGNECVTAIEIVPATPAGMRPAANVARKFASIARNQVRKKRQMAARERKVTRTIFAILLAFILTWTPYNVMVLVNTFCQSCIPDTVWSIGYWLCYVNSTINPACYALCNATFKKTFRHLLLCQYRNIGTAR
Put plainly: mAChR M4 cell-based functional assay (calcium mobilization, CHO-K1 hM4-Gqi5 cells). Conditions: for Emax at 30 µM: CHO-K1, % ACh maximum at 30 μM, human M4; for EC50: positive allosteric modulator activity, increase in the EC20 acetylcholine response, CHO-K1 hM4-Gqi5 cells, read-out: Human M4 EC50. Put shortly: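 CHO-K1 cells stably expressing human M4 with chimeric Gqi5, loaded with Fluo-4 AM; compounds given as 11-point 1:3 curves and calcium flux read on FDSS at 1 Hz. Acetylcholine EC20 added at 144 s, EC80 at 230 s; agonist, PAM (EC20 potentiation) and antagonist (EC80 inhibition) EC50/Emax from four-parameter fits.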

Take `[2H]C([2H])(NC(=O)c1cc(C)c(N2CCc3ncc(C(F)(F)F)cc3C2)nn1)c1cscn1` [Example 507, 5-methyl-N-(thiazol-4-ylmethyl-d2)-6-(3-(trifluoromethyl)-7,8-dihydro-1,6-naphthyridin-6(5H)-yl)pyridazine-3-carboxamide]: the Emax at 30 µM amounted to 81% and the EC50 turned out to be 43 nM.

As for `Cc1cc(C#N)cnc1N1CCc2ncc(N3CC(C)Cn4nccc43)cc2C1` (centres unmarked) [Example 384, 5-methyl-6-(3-(6-methyl-6,7-dihydropyrazolo[1,5-a]pyrimidin-4(5H)-yl)-7,8-dihydro-1,6-naphthyridin-6(5H)-yl)nicotinonitrile], the Emax at 30 µM amounted to 100% and the EC50 is 185 nM.

On to `[2H]C1([2H])Cc2ncc(Nc3cc(C)ncc3F)cc2C([2H])([2H])N1c1nnc(C#N)c(C)c1C` [Example 600, 6-(3-((5-fluoro-2-methylpyridin-4-yl)amino)-7,8-dihydro-1,6-naphthyridin-6(5H)-yl-5,5,7,7-d4)-4,5-dimethylpyridazine-3-carbonitrile], for which the maximum response (Emax) at 30 µM is 92% and the EC50 turned out to be 26 nM.

For `Cc1cc(C#N)nnc1N1CCc2ncc(-c3ccnn3C)cc2C1` [Example 394, 5-methyl-6-(3-(1-methyl-1H-pyrazol-5-yl)-7,8-dihydro-1,6-naphthyridin-6(5H)-yl)pyridazine-3-carbonitrile], the Emax at 30 µM came out at 86% and the EC50 came to 1080 nM.

As to `Cc1c(Cl)nc(C(F)(F)F)nc1N1CCc2ncc(C(F)(F)F)cc2C1` [compound 237, 6-(6-chloro-5-methyl-2-(trifluoromethyl)pyrimidin-4-yl)-3-(trifluoromethyl)-5,6,7,8-tetrahydro-1,6-naphthyridine], the maximal response (Emax) at 30 µM stood at 73% and the EC50 stood at 2960 nM.

`Cc1c(C(=O)Nc2ccncc2)nnc(N2CCc3ncc(C(F)(F)F)cc3C2)c1C` [Example 466, 4,5-dimethyl-N-(pyridin-4-yl)-6-(3-(trifluoromethyl)-7,8-dihydro-1,6-naphthyridin-6(5H)-yl)pyridazine-3-carboxamide]: the Emax at 30 µM is 98% and the EC50 was 111 nM.

With `Cc1nc(C)c(C)c(N2CCc3ncc(C(F)(F)F)cc3C2)n1` [compound 235, 3-(trifluoromethyl)-6-(2,5,6-trimethylpyrimidin-4-yl)-5,6,7,8-tetrahydro-1,6-naphthyridine], the Emax at 30 µM stood at 87% and the EC50 was determined as 350 nM.

Turning to `Cc1cc(C(=O)NCC2CCCCO2)cnc1N1CCc2ncccc2C1` (centres unmarked) [compound 161, 6-(7,8-dihydro-5H-1,6-naphthyridin-6-yl)-5-methyl-N-(tetrahydropyran-2-ylmethyl)pyridine-3-carboxamide], the Emax at 30 µM came to 58% and the EC50 is at least 10000 nM.

As to `Cc1c(C#N)nnc(N2Cc3cc(C(F)(F)F)cnc3C(C)C2)c1C` (centres unmarked) [Example 348, 4,5-dimethyl-6-(8-methyl-3-(trifluoromethyl)-7,8-dihydro-1,6-naphthyridin-6(5H)-yl)pyridazine-3-carbonitrile], the Emax at 30 µM was determined as 70% and the EC50 was found to be 331 nM.

With `Cc1cnc2c(c1)CN(c1nnc(C#N)cc1C)CC2` [Example 305, 5-methyl-6-(3-methyl-7,8-dihydro-1,6-naphthyridin-6(5H)-yl)pyridazine-3-carbonitrile], the EC50 came to 537 nM. For the same compound, where the note is “CHO-K1”, the Emax came out at 105%.

As for `Cc1cc(C(=O)NCc2nccs2)cnc1N1CCc2ncc(-c3cccnc3F)cc2C1` [compound 175, 6-[3-(2-fluoro-3-pyridyl)-7,8-dihydro-5H-1,6-naphthyridin-6-yl]-5-methyl-N-(thiazol-2-ylmethyl)pyridine-3-carboxamide], the Emax at 30 µM is 89% and the concentration giving a half-maximal response (EC50) amounted to 145 nM.

As for `Cc1cc(C(=O)N2CC(C)(O)C2)nnc1N1CCc2ncc(N3CCO[C@H](C)C3)cc2C1` [Example 540, (R)-(3-hydroxy-3-methylazetidin-1-yl)(5-methyl-6-(3-(2-methylmorpholino)-7,8-dihydro-1,6-naphthyridin-6(5H)-yl)pyridazin-3-yl)methanone], the Emax at 30 µM was 100% and the EC50 turned out to be 268 nM.

`COc1ccc(-c2cnc3c(c2)CN(c2nc(C)nc(C)c2C)CC3)cn1` [compound 230, 3-(6-methoxypyridin-3-yl)-6-(2,5,6-trimethylpyrimidin-4-yl)-5,6,7,8-tetrahydro-1,6-naphthyridine]: the Emax at 30 µM was 65% and the EC50 worked out at 279 nM.

As to `Cc1c(C#N)nnc(N2CCc3ncc(Oc4ccc(F)cc4)cc3C2)c1C` [Example 300, 6-(3-(4-fluorophenoxy)-7,8-dihydro-1,6-naphthyridin-6(5H)-yl)-4,5-dimethylpyridazine-3-carbonitrile], the Emax at 30 µM was determined as 71% and the EC50 is 246 nM.

`Cc1cc(C(=O)NCc2ccc3nccnc3c2)cnc1N1CCc2ncccc2C1` [compound 157, 6-(7,8-dihydro-5H-1,6-naphthyridin-6-yl)-5-methyl-N-(quinoxalin-6-ylmethyl)pyridine-3-carboxamide]: the Emax at 30 µM worked out at 57% and the EC50 was determined as 3480 nM.

On to `Cc1cc(C(=O)NCCc2ccncc2)cnc1N1CCc2ncccc2C1` [compound 126, 6-(7,8-dihydro-5H-1,6-naphthyridin-6-yl)-5-methyl-N-[2-(4-pyridyl)ethyl]pyridine-3-carboxamide], for which the Emax at 30 µM is 63% and the EC50 came to 9080 nM.

As for `Cc1cc(C#N)cnc1N1CCc2ncc(-c3cnn(C4CCCC4)c3)cc2C1` [compound 98, 6-[3-(1-cyclopentylpyrazol-4-yl)-7,8-dihydro-5H-1,6-naphthyridin-6-yl]-5-methyl-pyridine-3-carbonitrile], the Emax at 30 µM stood at 79% and the EC50 was found to be 407 nM.

On to `Cc1nc(Cl)c(C)c(N2CCc3ncc(Nc4cccnc4F)cc3C2)n1` [compound 251, 6-(6-chloro-2,5-dimethylpyrimidin-4-yl)-N-(2-fluoropyridin-3-yl)-5,6,7,8-tetrahydro-1,6-naphthyridin-3-amine], for which the Emax at 30 µM came out at 93% and the 50% effective concentration (EC50) is 197 nM.

In the case of `Cc1c(C(=O)NCc2ccncc2)nnc(N2CCc3ncc(C(F)(F)F)cc3C2)c1C` [Example 467, 4,5-dimethyl-N-(pyridin-4-ylmethyl)-6-(3-(trifluoromethyl)-7,8-dihydro-1,6-naphthyridin-6(5H)-yl)pyridazine-3-carboxamide], the Emax at 30 µM amounted to 98% and the EC50 was determined as 129 nM.

For `Cc1cc(C#N)cnc1N1CCc2ncc(Oc3cccc(F)c3F)cc2C1` [Example 350, 6-(3-(2,3-difluorophenoxy)-7,8-dihydro-1,6-naphthyridin-6(5H)-yl)-5-methylnicotinonitrile], the Emax at 30 µM turned out to be 84% and the EC50 was found to be 547 nM.

As to `Cc1cc(C#N)cnc1N1CCc2ncc(-c3cnn(CC(C)C)c3)cc2C1` [compound 112, 6-[3-(1-isobutylpyrazol-4-yl)-7,8-dihydro-5H-1,6-naphthyridin-6-yl]-5-methyl-pyridine-3-carbonitrile], the Emax at 30 µM came to 76% and the EC50 was determined as 465 nM.

In the case of `Cc1c(Cl)nc(C2CC2)nc1N1CCc2ncc(Nc3ccccc3F)cc2C1` [compound 90, 6-(6-chloro-2-cyclopropyl-5-methyl-pyrimidin-4-yl)-N-(2-fluorophenyl)-7,8-dihydro-5H-1,6-naphthyridin-3-amine], the Emax at 30 µM stood at 72% and the EC50 came to 7600 nM.
